# Laboratory results from patent US8815800B2, “Moisturizing composition comprising an aminopeptide mixture” (Conopco, Inc., priority 2011, dated 2014).
# Key:
# Ex-vivo porcine skin = experiment: Skin moisturization: Corneometer hydration of treated ex-vivo porcine skin
# Method: Skin moisturization was assessed in terms of hydration, measured using a Corneometer (Courage+Khazaka, Germany, model CM 825, consistent with the Sorption Desorption Test described in Bioengineering of the Skin:Water and the Stratum Corneum, by G. Borroni et al., Ed by P. Elsner et al., CBC Press, Chapter 18, 1995). Instrument readings typically vary from 5 to 120 units, with small numbers (˜6) typical for nails, higher numbers typical for dry skin (˜10-20), medium numbers typical for hydrated skin (˜40) and large numbers typical for skin immediately after application of water-based humectants (above 100).
# Ex-vivo porcine skin (area 1.5 cm×1.5 cm) was treated with 0.1 ml of the compositions identified in Table 1 as well as a 10% glycerol solution and deionized water as the control. Readings were taken before treatments as a baseline and at least 5 measurements were made at the same position at the time intervals shown in the table.
# The relative hydration numbers were calculated as 100%*(Ct-C0)/C0, where C0 is the reading before the treatment, and Ct is the reading taken at the time t after treatment.
# [1] = Glass transition temperature by differential scanning calorimetry; type: physicochemical
# Method: Glass transition temperatures were measured using differential scanning calorimetry (DSC Q1000, TA Instruments) at a heating rate of 10 K/min from −80 to +40° C. Glass transition temperatures were determined using TA instrument software (TA Advantage) from the middle of the heat capacity curve. The compositions comprising aminopeptide mixtures consistent with this invention were assessed against glycerol and other compositions with amino acids. Water concentration means the water concentration of the composition at the time the glass transition temperature was obtained. Water was evaporated from contained compositions by storing the same at room temperature at a relative humidity of about 33%.
# stratum corneum = experiment: Hydration of stratum corneum: water uptake in sorption-desorption cycle (Dynamic Water Sorption Analyzer); conditions: 0.12 mL applied
# Method: The hydration of the stratum corneum was estimated from hysteresis observed during the sorption-desorption cycle. Disks of stratum corneum (6 mm in diameter) were treated with 0.06 mL aminopeptide mixture, glycerol or water at both sides and dried. The samples were then placed in a Dynamic Water Sorption Analyzer and with controlled humidity. When the humidity was increased in small steps (Delta RH=10%) water uptake was measured after 3 hours equilibration for each step. Water uptake is defined as a mass of water per the dry mass of stratum corneum. Table 3 depicts the values of water uptake for sorption and desorption for stratum corneum treated with aminopeptide mixture consistent with this invention (Sample 3), glycerol and stratum corneum treated with deionized water.
smiles,measurement,setting,value
"OCC(O)CO [Glycerol (10%), glycerol]",Relative Hydration,Ex-vivo porcine skin; 10 minutes after treatment with 0.1 ml,23%
same,Relative Hydration,Ex-vivo porcine skin; 30 minutes after treatment with 0.1 ml,11%
same,Relative Hydration,Ex-vivo porcine skin; 60 minutes after treatment with 0.1 ml,10%
same,change in hydration with respect to the initial hydration number,"Ex-vivo porcine skin; after 10, 30, and 60 minutes of application to model skin, in words",lower
same,Glass transition temperature,[1]; water concentration 0 % in composition at reading,−83 °C
same,Glass transition temperature,[1]; water concentration 40 % in composition at reading,−108 °C
same,"Water uptake, desorption",stratum corneum; relative humidity 20.8 %,87.3 mg/g
same,"Water uptake, sorption",stratum corneum; relative humidity 20.8 %,122.22 mg/g
same,water uptake difference (desorption-sorption),stratum corneum; relative humidity 20.8 %,34.92 mg/g
same,"Water uptake, desorption",stratum corneum; relative humidity 31 %,135.34 mg/g
same,"Water uptake, sorption",stratum corneum; relative humidity 31 %,161.38 mg/g
same,water uptake difference (desorption-sorption),stratum corneum; relative humidity 31 %,-26.04 mg/g
same,"Water uptake, desorption",stratum corneum; relative humidity 41 %,192.06 mg/g
same,"Water uptake, sorption",stratum corneum; relative humidity 41 %,209.84 mg/g
same,water uptake difference (desorption-sorption),stratum corneum; relative humidity 41 %,-17.78 mg/g
same,"Water uptake, desorption",stratum corneum; relative humidity 51 %,261.90 mg/g
same,"Water uptake, sorption",stratum corneum; relative humidity 51 %,275.13 mg/g
same,water uptake difference (desorption-sorption),stratum corneum; relative humidity 51 %,-13.23 mg/g
same,"Water uptake, desorption",stratum corneum; relative humidity 60.2 %,366.67 mg/g
same,"Water uptake, sorption",stratum corneum; relative humidity 60.2 %,366.67 mg/g
same,water uptake difference (desorption-sorption),stratum corneum; relative humidity 60.2 %,0 mg/g
same,"Water uptake, desorption",stratum corneum; relative humidity 70.35 %,524.34 mg/g
same,"Water uptake, sorption",stratum corneum; relative humidity 70.35 %,524.34 mg/g
same,water uptake difference (desorption-sorption),stratum corneum; relative humidity 70.35 %,0 mg/g
